Values after ≈ are worked out from the molar mass of the structure shown.
Tests used:
[1] = Aqueous solubility of the compound at pH 7.4; format: physicochemical; conditions: buffer
[2] = species: Homo sapiens; experiment: Hepatic blood flow in human; format: ADME, organism-based, Liver
[3] = Oral bioavailability in Wistar rat at 10 umol/kg; format: ADME, organism-based, Wister; conditions: in vivo
[4] = Volume of distribution at steady state in Wistar rat at 1 umol/kg, iv; format: ADME, organism-based, Wister; conditions: in vivo, read-out: Vdss
[5] = AUC (0 to infinity) in Wistar rat at 10 umol/kg, po; format: ADME, organism-based, Wister; parameters: dose 10 umol/kg, route oral, time infinity; conditions: plasma
[6] = species: Rattus norvegicus; experiment: Hepatic blood flow in rat; format: ADME, organism-based, Liver
[7] = Cmax in Wistar rat at 10 umol/kg, po; format: ADME, organism-based, Wister; parameters: dose 10 umol/kg, route oral; conditions: in vivo

| SMILES | solubility [1] [µg/mL] | QH [2] [%] | bioavailability [3] [%] | Vd [4] [L/kg] | AUC(0-inf) [5] [µM·h] | QH [6] [%] | Cmax [7] [ng/mL] |
| --- | --- | --- | --- | --- | --- | --- | --- |
| CCCCc1ccc(NC(=O)N2CCCN(C(=O)CCC3CCCC3)CC2)cc1 | 3 (≈ 7.51 µM) | – | – | – | – | – | – |
| CC(C)(C)c1cc(NC(=O)N2CCCN(C(=O)C3CCOCC3)CC2)no1 | > 37 | < 24 | 28 | 0.87 | 1.38 | 35 | 1760 |
| CC(C)(C)c1cc(NC(=O)N2CCCN(C(=O)C3CCOCC3)CC2)on1 | > 37 | < 24 | – | – | – | < 23 | – |
| CC(C)(C)c1cc(NC(=O)N2CCCN(C(=O)CN3CCS(=O)(=O)CC3)CC2)no1 | > 96 | 50 | – | – | – | 27 | – |
| CC(C)(C)c1cc(NC(=O)N2CCCN(C(=O)N3CCS(=O)(=O)CC3)CC2)no1 | 18 (≈ 42.1 µM) | < 24 | – | – | – | 42 | – |
